The source of these data is patent US8722849B2, “Polypeptides” (Novo Nordisk A/S, priority 2011, dated 2014).

SMILES strings stand for the structures. Values after ≈ are worked out from the molar mass of the structure shown. Like-named read-outs stand apart in the source and are kept apart here. Starred links: 1 amine or outer side, 2 acyl side, 3 side chain; linkers in the order of their positions; H or OH if unused. Positions of bridges follow the written chain, without caps; N, C: chain ends. Residues, ends and D or L forms follow the SMILES beside them. *: point of attachment. C20 diacid = O=C(O)CCCCCCCCCCCCCCCCCCC(=O)*; γGlu = O=C(O)[C@H](CCC(=O)[*:2])N[*:1] A value given as a limit tells only on which side of the number the result lay.

For data set [1], the target named is T1, human amylin receptor (amylin 3(a) receptor: human calcitonin receptor + RAMP-3) (Homo sapiens, UniProt O60896+P30988).
T1 construct: expressed in transfected cells; host or cells: BHK570
T1 sequence (P30988 25-474): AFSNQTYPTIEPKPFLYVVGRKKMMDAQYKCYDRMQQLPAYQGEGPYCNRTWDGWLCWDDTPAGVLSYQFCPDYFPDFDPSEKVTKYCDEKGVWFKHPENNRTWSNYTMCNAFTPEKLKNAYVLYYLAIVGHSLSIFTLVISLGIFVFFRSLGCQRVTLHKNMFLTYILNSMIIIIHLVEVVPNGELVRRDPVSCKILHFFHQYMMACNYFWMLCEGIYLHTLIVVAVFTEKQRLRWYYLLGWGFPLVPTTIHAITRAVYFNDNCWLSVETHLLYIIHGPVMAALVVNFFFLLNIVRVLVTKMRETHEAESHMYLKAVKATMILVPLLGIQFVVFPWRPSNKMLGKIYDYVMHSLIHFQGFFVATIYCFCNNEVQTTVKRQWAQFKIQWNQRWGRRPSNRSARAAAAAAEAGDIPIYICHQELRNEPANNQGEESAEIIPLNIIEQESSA
T1 sequence (O60896 24-148 partner): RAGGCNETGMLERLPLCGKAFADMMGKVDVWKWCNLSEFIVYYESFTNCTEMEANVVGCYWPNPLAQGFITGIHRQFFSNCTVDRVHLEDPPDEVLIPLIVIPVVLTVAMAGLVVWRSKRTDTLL
Nature of the data set: Assay (II)a functional CRE-luciferase assay, human amylin receptor. The format is cell-based.

Data set [2] addresses T2, human calcitonin receptor (Homo sapiens, UniProt P30988).
T2 construct: expressed in transfected cells; host or cells: BHK570
T2 sequence (P30988 25-474): T1 sequence (P30988 25-474)
Briefly: Assay (II)a functional CRE-luciferase assay, human calcitonin receptor. In kind it is cell-based. The conditions noted are these: Table 7; human calcitonin (CTa) receptor.

A short description of data set [3]: Assay (III) ThT fibrillation assay for physical stability. In kind it is physicochemical. As to conditions: ThT fibrillation assay. A digest of the protocol: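 Freshly prepared formulations, pH-adjusted, with 1 μM ThT; four or eight replicates incubated at 37 °C under 960 rpm orbital shaking. Fluorescence (ex 444/em 485 nm) read every 20 min; […]. Peptide concentration measured by RP-HPLC before and after the run.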

Data set [4] can be described thus: Assay (IV) determination of solubility. The format is physicochemical. A digest of the protocol: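 Stock ~500 nmol/ml in water; 1:1 with 100 mM buffer, pH 3.0–8.0 (glycylglycine ≤5.0, bistrispropane ≥6.0); 18 h RT; spin; HPLC quantitation of soluble polypeptide.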
Setting [5] is: Table 2, BHK amylin 3(a)-receptor/CRE-luc cells.
Where [6] appears, read: bistrispropane buffer, pH 6, pH 6.0, read-out: Solubility pH 6.0.
Setting [7] is: bistrispropane buffer, pH 6.5, pH 6.5, read-out: Solubility pH 6.5.
[8] abbreviates: bistrispropane buffer, pH 7, pH 7.0, read-out: Solubility pH 7.0.
Setting [9] is: bistrispropane buffer, pH 7.5, pH 7.5, read-out: Solubility pH 7.5.
Where [10] appears, read: bistrispropane buffer, pH 8, pH 8.0, read-out: Solubility pH 8.0.
Setting [11] is: glycylglycine buffer, pH 3, pH 3.0, read-out: Solubility pH 3.0.
[12] abbreviates: glycylglycine buffer, pH 4, pH 4.0, 18 hours at room temperature, Table 2, read-out: Solubility pH 4.0.
Where [13] appears, read: glycylglycine buffer, pH 4, pH 4.0, read-out: Solubility pH 4.0.
[14] abbreviates: glycylglycine buffer, pH 5, pH 5.0, read-out: Solubility pH 5.0.
Where [15] appears, read: bistrispropane buffer, pH 7, pH 7.0, 18 hours at room temperature, Table 3, read-out: Solubility pH 7.0.

Turning to `CC[C@H](C)[C@H](NC(=O)[C@@H]1CCCN1C(=O)CNC(=O)[C@H](Cc1ccccc1)NC(=O)[C@H](CC(N)=O)NC(=O)[C@H](CC(N)=O)NC(=O)[C@H](CO)NC(=O)[C@H](CO)NC(=O)[C@H](Cc1c[nH]cn1)NC(=O)[C@H](Cc1c[nH]cn1)NC(=O)[C@H](CC(C)C)NC(=O)[C@H](Cc1ccccc1)NC(=O)[C@H](CCC(=O)O)NC(=O)[C@H](C)NC(=O)[C@H](CC(C)C)NC(=O)[C@H](CCCNC(=N)N)NC(=O)[C@H](CCC(N)=O)NC(=O)[C@@H](NC(=O)[C@H](C)NC(=O)[C@@H]1CSSC[C@H](NC(=O)[C@H](CCCNC(=N)N)NC(=O)CNC(=O)CC[C@H](NC(=O)CCCCCCCCCCCCCCCCCCC(=O)O)C(=O)O)C(=O)N[C@@H](CC(N)=O)C(=O)N[C@@H]([C@@H](C)O)C(=O)N[C@@H](C)C(=O)N[C@@H]([C@@H](C)O)C(=O)N1)[C@@H](C)O)C(=O)N[C@@H](CC(C)C)C(=O)N1CCC[C@H]1C(=O)N1CCC[C@H]1C(=O)N[C@H](C(=O)N[C@@H](CC(N)=O)C(=O)N[C@H](C(=O)NCC(=O)N[C@@H](CO)C(=O)N[C@@H](Cc1c[nH]cn1)C(=O)N[C@H](C(=O)N[C@@H](Cc1ccc(O)cc1)C(N)=O)[C@@H](C)O)C(C)C)[C@@H](C)O` [Example 100, N-alpha-[(S)-4-Carboxy-4-(19-carboxynonadecanoylamino)butyryl]-Gly-[Arg1,Glu14,His17,His35]-pramlintide] ({C20 diacid-γGlu}-GRCNTATCATQRLAEFLHHSSNNFGPILPPTNVGSHTY-NH2; disulfide 3-8 (inferred)), the EC50 in data set [1] (setting [5]) came to 67.5 pM; in data set [2], 89.5 pM. For the same molecule, in data set [3], the “ThT pH 4.0 lag time” value is given as 26 h. In addition, the “ThT pH 4.0 lag time (h)” value in data set [3] is recorded as 26 h. Besides, the solubility at 18 h in data set [4] (setting [6]) was > 200 µM; in data set [4] (setting [7]), 28 µM (≈ 128 µg/mL); in data set [4] (setting [8]), 9 µM (≈ 41.1 µg/mL); in data set [4] (setting [9]), 30 µM (≈ 137 µg/mL); in data set [4] (setting [10]), 95 µM (≈ 434 µg/mL); in data set [4] (setting [11]), > 200 µM. Further, the solubility at 18 h in data set [4] (setting [12]), in data set [4] (setting [13]) and in data set [4] (setting [14]) was > 200 µM in each case.
For `CC[C@H](C)[C@H](NC(=O)[C@@H]1CCCN1C(=O)CNC(=O)[C@H](Cc1ccccc1)NC(=O)[C@H](CC(N)=O)NC(=O)[C@H](CC(N)=O)NC(=O)[C@H](CO)NC(=O)[C@H](CO)NC(=O)[C@H](Cc1c[nH]cn1)NC(=O)[C@@H](NC(=O)[C@H](CC(C)C)NC(=O)[C@H](Cc1ccccc1)NC(=O)[C@H](CCC(=O)O)NC(=O)[C@H](C)NC(=O)[C@H](CC(C)C)NC(=O)[C@H](CCCNC(=N)N)NC(=O)[C@H](CCC(N)=O)NC(=O)[C@@H](NC(=O)[C@H](C)NC(=O)[C@@H]1CSSC[C@H](NC(=O)[C@H](CCCNC(=N)N)NC(=O)CNC(=O)CC[C@H](NC(=O)CCCCCCCCCCCCCCCCCCC(=O)O)C(=O)O)C(=O)N[C@@H](CC(N)=O)C(=O)N[C@@H]([C@@H](C)O)C(=O)N[C@@H](C)C(=O)N[C@@H]([C@@H](C)O)C(=O)N1)[C@@H](C)O)C(C)C)C(=O)N[C@@H](CC(C)C)C(=O)N1CCC[C@H]1C(=O)N1CCC[C@H]1C(=O)N[C@H](C(=O)N[C@@H](CC(N)=O)C(=O)N[C@H](C(=O)NCC(=O)N[C@@H](CO)C(=O)N[C@@H](CC(N)=O)C(=O)N[C@H](C(=O)N1CCC[C@H]1C(N)=O)[C@@H](C)O)C(C)C)[C@@H](C)O` [Example 102, N-alpha-[(S)-4-Carboxy-4-(19-carboxynonadecanoylamino)butyryl]-Gly-[Arg1,Glu14,Pro37]-pramlintide] ({C20 diacid-γGlu}-GRCNTATCATQRLAEFLVHSSNNFGPILPPTNVGSNTP-NH2; disulfide 3-8 (inferred); C-terminus assumed), the EC50 is 49.5 pM in data set [1] (setting [5]) and 50.5 pM in data set [2]. Further, in data set [3], the “ThT pH 4.0 lag time (h)” value was found to be 3.1 h. Moreover, the solubility at 18 h in data set [4] (setting [6]) was > 200 µM; in data set [4] (setting [7]) it was 198 µM (≈ 879 µg/mL); in data set [4] (setting [15]), > 200 µM; in data set [4] (setting [8]), > 200 µM; in data set [4] (setting [9]) it was > 200 µM; in data set [4] (setting [10]), > 200 µM. Besides, the solubility at 18 h in data set [4] (setting [11]), in data set [4] (setting [12]), in data set [4] (setting [13]) and in data set [4] (setting [14]) was > 200 µM in each case.
As for `CC[C@H](C)[C@H](NC(=O)[C@@H]1CCCN1C(=O)CNC(=O)[C@H](Cc1ccccc1)NC(=O)[C@H](CC(N)=O)NC(=O)[C@H](CC(N)=O)NC(=O)[C@H](CO)NC(=O)[C@H](CO)NC(=O)[C@H](Cc1c[nH]cn1)NC(=O)[C@@H](NC(=O)[C@H](CC(C)C)NC(=O)[C@H](Cc1ccccc1)NC(=O)[C@H](CC(N)=O)NC(=O)[C@H](C)NC(=O)[C@H](CC(C)C)NC(=O)[C@H](CCCNC(=N)N)NC(=O)[C@H](CCC(N)=O)NC(=O)[C@@H](NC(=O)[C@H](C)NC(=O)[C@@H]1CSSC[C@H](NC(=O)[C@H](CCCNC(=N)N)NC(=O)CNC(=O)CC[C@H](NC(=O)CCCCCCCCCCCCCCCCCCC(=O)O)C(=O)O)C(=O)N[C@@H](CC(N)=O)C(=O)N[C@@H]([C@@H](C)O)C(=O)N[C@@H](C)C(=O)N[C@@H]([C@@H](C)O)C(=O)N1)[C@@H](C)O)C(C)C)C(=O)N[C@@H](CC(C)C)C(=O)N1CCC[C@H]1C(=O)N1CCC[C@H]1C(=O)N[C@H](C(=O)N[C@@H](CC(N)=O)C(=O)N[C@H](C(=O)NCC(=O)N[C@@H](CO)C(=O)N[C@@H](CC(N)=O)C(=O)N[C@H](C(=O)N1CCC[C@H]1C(N)=O)[C@@H](C)O)C(C)C)[C@@H](C)O` [Example 103, N-alpha-[(S)-4-Carboxy-4-(19-carboxynonadecanoylamino)butyryl]-Gly-[Arg1,Pro37]-pramlintide] ({C20 diacid-γGlu}-GRCNTATCATQRLANFLVHSSNNFGPILPPTNVGSNTP-NH2; disulfide 3-8 (inferred)), the EC50 amounted to 52.5 pM in data set [1] (Table 6, human amylin receptor) and 75 pM in data set [2]. Besides, in data set [3], the “ThT pH 4.0 lag time (h)” value was determined as 1.3 h. In addition, the solubility at 18 h in data set [4] (setting [6]) is > 200 µM; in data set [4] (setting [7]), > 200 µM; in data set [4] (setting [8]) it was 199 µM (≈ 880 µg/mL); in data set [4] (setting [9]) it was > 200 µM; in data set [4] (setting [10]), > 200 µM; in data set [4] (setting [11]) it was > 200 µM. Also, the solubility at 18 h in data set [4] (setting [13]) and in data set [4] (setting [14]) was > 200 µM in each case.
Turning to `CC[C@H](C)[C@H](NC(=O)[C@@H]1CCCN1C(=O)CNC(=O)[C@H](Cc1ccccc1)NC(=O)[C@H](CC(N)=O)NC(=O)[C@H](CC(N)=O)NC(=O)[C@H](CO)NC(=O)[C@H](CO)NC(=O)[C@H](Cc1c[nH]cn1)NC(=O)[C@H](Cc1c[nH]cn1)NC(=O)[C@H](CC(C)C)NC(=O)[C@H](Cc1ccccc1)NC(=O)[C@H](CCC(=O)O)NC(=O)[C@H](C)NC(=O)[C@H](CC(C)C)NC(=O)[C@H](CCCNC(=N)N)NC(=O)[C@H](CCC(N)=O)NC(=O)[C@@H](NC(=O)[C@H](C)NC(=O)[C@@H]1CSSC[C@H](NC(=O)CC[C@H](NC(=O)CCCCCCCCCCCCCCCCCCC(=O)O)C(=O)O)C(=O)N[C@@H](CC(N)=O)C(=O)N[C@@H]([C@@H](C)O)C(=O)N[C@@H](C)C(=O)N[C@@H]([C@@H](C)O)C(=O)N1)[C@@H](C)O)C(=O)N[C@@H](CC(C)C)C(=O)N1CCC[C@H]1C(=O)N1CCC[C@H]1C(=O)N[C@H](C(=O)N[C@@H](CC(N)=O)C(=O)N[C@H](C(=O)NCC(=O)N[C@@H](CO)C(=O)N[C@@H](CC(N)=O)C(=O)N[C@H](C(=O)N1CCC[C@H]1C(N)=O)[C@@H](C)O)C(C)C)[C@@H](C)O` [Example 104, N-alpha-[(S)-4-Carboxy-4-(19-carboxynonadecanoylamino)butyryl]-[des1,Glu14,His17,Pro37]-pramlintide] ({C20 diacid-γGlu}-CNTATCATQRLAEFLHHSSNNFGPILPPTNVGSNTP-NH2; disulfide 1-6 (inferred)), the results for the EC50 in data set [1] (setting [5]) and in data set [2] were 79.5 pM and 107 pM, respectively. Also, the “ThT pH 4.0 lag time (h)” value in data set [3] came out at 23 h. Moreover, the solubility at 18 h in data set [4] (setting [6]), in data set [4] (setting [7]), in data set [4] (setting [15]), in data set [4] (setting [8]), in data set [4] (setting [9]) and in data set [4] (setting [10]) was > 200 µM in each case. Besides, the solubility at 18 h in data set [4] (setting [11]), in data set [4] (setting [12]), in data set [4] (setting [13]) and in data set [4] (setting [14]) was > 200 µM in each case.
